# Where a name gives a salt, the structure may show the parent alone.
# Columns and labels:
# [1] = test system: hypoxia; experiment: Effect on hypoxia (survival time); assay type: in vivo, female dd-strain mice; conditions: 30 mg/kg p.o., 30 min before hypoxia 200 mmHg, mice
# Procedure: According to the method of Nakanishi et al described in Life Science, vol. 13, p. 467, 1973, 30 mg/kg of test compounds were orally administered to groups of six female dd-strain mice and 30 minutes later the survival time, i.e. time required until respiratory failure, was measured under the hypoxia condition of 200 mmHg. The extention of the survival time against the control group was expressed as a percentage and the results are summarized in Table 3.
# [2] = test system: gastric secretion; experiment: Effect on gastric secretion (Shay pylorus ligation); assay type: in vivo; conditions: 10 mg/kg s.c., pylorus-ligated female Wistar rats, 4 hours
# Procedure: The experiment was performed according to the method of Shay et al described in Gastroenterology, vol 5, p. 43, 1945.
# Groups of ten female Wistar rats, weighing 130.200 g, were deprived of food and the abdomen of each rat was incised and the pylorus ligated under ether anesthesia. Immediately after pylorus ligation, 10 mg/kg of test compounds were subcutaneously administered. After 4 hours, the gastric contents were collected and centrifuged. The supernatant was regarded as volume of gastric secretion. The acidity of gastric juice was determined by titrating the gastric juice with 0.1N sodium hydroxide to pH 7.0 with an automatic titrator (Kyoto Denshi Kogyo K.K., AT-107).
# The percent inhibitions (%) of the compounds of the present invention on volume of gastric juice secretion and acidity of gastric juice were calculated and the results are summarized in Table 1.
# [3] = Toxicity; assay type: in vivo, ddY-mice
# Source text: Compounds of Examples 5, 11, 14, 15 and 55 were orally or intraperitoneally administered to groups of five ddY-mice.
# [4] = test system: gastric mucous membrane; experiment: Effect on injury of gastric mucous membrane (ethanol); assay type: in vivo, male Wistar rats; conditions: 30 min before ethanol 5 ml/kg p.o.
# Procedure: Male Wistar rats, weighing 170-250 g, were deprived of food for 48 hours and water for 24 hours and then test compounds were intraperitoneally administered. Thirty minutes after administration of test compounds, 5 ml/kg of ethanol was orally administered. One hour later the stomach of each rat was excised and inflated with 8 ml of a 3% formalin solution. The stomach was incised along the greater curvature and the area (mm^2) of gastric injury were measured and summed. The square root of the sum was used as an ulcer index.
# [5] = test system: tonic seizure; experiment: Antianxiety effect (bicuculline-induced tonic seizure); assay type: in vivo; conditions: Mus musculus, po, 1 hour before bicuculline 0.6 mg/kg i.v., male ddY-mice; read-out: ED50 (prevention of tonic seizure in half of the animals)
# Procedure: Test compounds were orally administered to groups of seven male ddY-mice and an hour later 0.6 mg/kg of bicuculline was intraveneously administered. […] The ED50 (mg/kg) was calculated by the probit method as the dose which is sufficient to prevent tonic seizure in half of the animals.
compound,measurement,setting,value
"CC(=O)NCc1ccc(-c2csc(N)n2)s1.Cl [Example 1, 2-amino-4-(5-acetylaminomethyl-2-thienyl)thiazole hydrochloride]","Extention of the survival time (percentage, against control group)",[1],280%
"CCN(CC)Cc1ccc(-c2csc(N)n2)s1.O=C(O)/C=C/C(=O)O [Example 4, 2-Amino-4-(5-diethylaminomethyl-2-thienyl)thiazole fumarate]",Percent inhibition of acidity of gastric juice,[2],38%
same,Percent inhibition of volume of gastric juice secretion,[2],65%
"Nc1nc(-c2ccc(CN3CCOCC3)s2)cs1 [Example 5, 2-Amino-4-(5-morpholinomethyl-2-thienyl)thiazole]","survival of mice, intraperitoneal",[3]; in vivo,All mice survived
same,"survival of mice, oral",[3]; in vivo,All mice survived
same,Percent inhibition of acidity of gastric juice,[2],22%
same,Percent inhibition of volume of gastric juice secretion,[2],66%
same,"Extention of the survival time (percentage, against control group)",[1],367%
"Nc1nc(-c2ccc(CN3CCCCC3)s2)cs1.O=C(O)/C=C/C(=O)O [Example 6, 2-Amino-4-(5-piperidinomethyl-2-thienyl)thiazole fumarate]","Percent inhibition (ulcer index, against control group)",[4]; 10 mg/kg i.p.,59%
same,"Extention of the survival time (percentage, against control group)",[1],278%
"CC(C)NCc1ccc(-c2csc(N)n2)s1.O=C(O)/C=C\C(=O)O [Example 7, 2-Amino-4-(5-isopropylaminomethyl-2-thienyl)thiazole maleate]",Percent inhibition of acidity of gastric juice,[2],31%
same,Percent inhibition of volume of gastric juice secretion,[2],80%
same,"Percent inhibition (ulcer index, against control group)",[4]; 3 mg/kg i.p.,51%
same,"Percent inhibition (ulcer index, against control group)",[4]; 10 mg/kg i.p.,63%
"CC(=O)OCC(=O)NCc1ccc(-c2csc(N)n2)s1 [Example 11, 2-amino-4-(5-acetoxyacetylaminomethyl-2-thienyl) thiazole]","survival of mice, intraperitoneal",[3]; in vivo,All mice survived
same,"survival of mice, oral",[3]; in vivo,All mice survived
same,"Percent inhibition (ulcer index, against control group)",[4]; 1 mg/kg i.p.,73%
"CCOCC(=O)NCc1ccc(-c2csc(N)n2)s1 [Example 14, 2-Amino-4-(5-ethoxyacetylaminomethyl-2-thienyl)thiazole]","survival of mice, intraperitoneal",[3]; in vivo,All mice survived
same,"survival of mice, oral",[3]; in vivo,All mice survived
same,Percent inhibition of acidity of gastric juice,[2],39%
same,Percent inhibition of volume of gastric juice secretion,[2],53%
same,"Percent inhibition (ulcer index, against control group)",[4]; 3 mg/kg i.p.,35%
same,"Extention of the survival time (percentage, against control group)",[1],204%
"Nc1nc(-c2ccc(CNC(=O)COc3ccccc3)s2)cs1.O=C(O)/C=C\C(=O)O [Example 15, 2-Amino-4-(5-phenoxyacetylaminomethyl-2-thienyl)thiazole maleate]","survival of mice, intraperitoneal","[3]; 300 mg/kg intraperitoneal, five days after administration, ddY-mice",All mice survived
same,"survival of mice, oral","[3]; 1000 mg/kg oral, five days after administration, ddY-mice",All mice survived
"Nc1nc(-c2ccc(CCN3CCN(c4cccc(C(F)(F)F)c4)CC3)s2)cs1 [Example 47, 2-Amino-4-[5-(2-(4-(3-trifluoromethylphenyl)-1-piperazinyl)ethyl)-2-thienyl]thiazole]",ED50,[5],21 mg/kg
"CC(Oc1ccccc1)C(=O)NCc1ccc(-c2csc(N)n2)s1.O=C(O)/C=C\C(=O)O (stereo not drawn) [Example 50, 2-Amino-4-[5-(2-phenoxypropionylaminomethyl)-2-thienyl]thiazole maleate]",Percent inhibition of acidity of gastric juice,[2],37%
same,Percent inhibition of volume of gastric juice secretion,[2],64%
"c1ccc(Nc2nc(-c3ccc(CN4CCCCC4)s3)cs2)cc1 [Example 53, 2-Phenylamino-4-(5-piperidinomethyl-2-thienyl)thiazole]",ED50,[5],50 to 100 mg/kg
"Nc1nc(-c2ccc(CCN3CCCCC3)s2)cs1.O=C(O)/C=C\C(=O)O [Example 54, 2-Amino-4-[5-(2-piperidinoethyl)-2-thienyl]thiazole maleate]",ED50,[5],50 to 100 mg/kg
"Nc1nc(-c2ccc(CCN3CCN(c4cccc(Cl)c4)CC3)s2)cs1 [Example 55, 2-Amino-4-[5-(2-(4-(3-chlorophenyl)-1-piperazinyl)ethyl)-2-thienyl]thiazolehydrochloride]",ED50,[5],50 mg/kg
same,"survival of mice, intraperitoneal",[3]; in vivo,All mice survived
same,"survival of mice, oral",[3]; in vivo,All mice survived
"Nc1nc(-c2ccc(CCN3CCOCC3)s2)cs1 [Example 65, 2Amino-4-[5-(2-morpholinoethyl)-2-thienyl]thiazole]",Percent inhibition of acidity of gastric juice,[2],39%
same,Percent inhibition of volume of gastric juice secretion,[2],61%
same,"Extention of the survival time (percentage, against control group)",[1],158%
